We go through 16 compounds from US20260078103A1, “ISOQUINOLONES AS PI3K INHIBITORS” (OnKure, Inc., priority 2022, published 2026).

Read-outs that look alike come from different tables or passages of the source.

What all share (format): cell-based
Experiment [1] relates to T47D cells expressing mutant PI3Ka (H1047R). Briefly: In vitro cell proliferation, T47D cells (CellTiter-Glo). As to conditions: inhibition of proliferation, read-out: Avg T-47D EC50. The method, boiled down: (§1)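 Proliferation was read by CellTiter-Glo luminescence after 72 h of exposure to 10-point compound dilutions at 37 °C and 5% CO2. T47D (RPMI, 10% FBS, insulin 0.2 units/mL) and SKBR3 (McCoys 5a, 10% FBS) cells were seeded at 1,500 cells/well. EC50 was fitted from inhibition relative to DMSO and 10 uM Alpelisib.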

For experiment [2], the system named is phosphorylation of AKT (pAKT) in T47D cells expressing mutant PI3Ka (H1047R). The experiment in a line: In vitro cell pAKT (Ser473) HTRF, T47D cells. As to conditions: cellular pAKT, T47D cells, mutant PI3Ka (H1047R), 6 hours, read-out: Avg T-47D IC50. An outline of the steps:
(§2)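 pAKT (Ser473) was quantified by HTRF in lysates from cells exposed 6 h at 37 °C to 10-point compound series, with T47D in insulin-supplemented RPMI/10% FBS and SKBR3 in McCoy's 5a/10% FBS. Controls: 0.1% DMSO (high) and 10 uM alpelisib (low). IC50 from sigmoidal curve fitting.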

Experiment [3] deals with phosphorylation of AKT (pAKT) in SKBR3 cells express WT PI3Ka. The experiment in a line: In vitro cell pAKT (Ser473) HTRF, SKBR3 cells. The note with it: cellular pAKT. An outline of the steps:
as §2
On the technique in general: Time-resolved FRET reads energy transfer from a long-lived donor to a nearby acceptor.

Experiment [4] relates to SKBR3 cells express WT PI3Ka. Briefly: In vitro cell proliferation, SKBR3 cells (CellTiter-Glo). As to conditions: inhibition of proliferation. An outline of the steps:
as §1
In general terms: In ATP-based viability assays light output follows the ATP content of the culture.

For orientation: EC50 means the concentration needed to bring the measured effect to its halfway point. Usually IC50 stands for the concentration that inhibits the measured activity by half. As to `Cc1cc([C@@H](C)Nc2ccccc2C(=O)O)c2cc(-c3cnc(C(F)F)nc3)n(C)c(=O)c2c1` [Example 341], the concentration giving a half-maximal response (EC50) in experiment [1] (Homo sapiens, T47D, 72 h) is 1 to 500 nM; in experiment [4] (Homo sapiens, SK-BR-3, 72 h), over 15000 nM. Further, the half-maximal inhibitory concentration (IC50) in experiment [2] (Homo sapiens, T47D, 6 h) was 1 to 500 nM; in experiment [3] (Homo sapiens, SK-BR-3, 6 h), over 15000 nM.
As for `Cc1cc([C@@H](C)Nc2ccccc2C(=O)O)c2cc(OCc3ccnc(C)c3)n(C)c(=O)c2c1` [Example 342], the half-maximal effective concentration (EC50) in experiment [1] (Homo sapiens, T47D, 72 h) was 1 to 500 nM; in experiment [4] (Homo sapiens, SK-BR-3, 72 h), over 15000 nM. For the same compound, the IC50 in experiment [2] (Homo sapiens, T47D, 6 h) was 1 to 500 nM; in experiment [3] (Homo sapiens, SK-BR-3, 6 h), over 15000 nM.
Turning to `Cc1cc([C@@H](C)Nc2cccc(F)c2C(=O)O)c2cc(N3CCN(c4ccc(C)nc4C)CC3)n(C)c(=O)c2c1` [Example 343], the EC50 in experiment [1] (Homo sapiens, T47D, 72 h) lay in the range of 1 to 500 nM; in experiment [4] (Homo sapiens, SK-BR-3, 72 h), 2000 to 15000 nM. Also, the IC50 was in the range of 1 to 500 nM in experiment [2] (Homo sapiens, T47D, 6 h) and 2000 to 15000 nM in experiment [3] (Homo sapiens, SK-BR-3, 6 h).
Consider `C[C@@H](Nc1ccccc1C(=O)O)c1cc(F)cc2c(=O)n(C)c(-c3cnc(C4CC4)s3)cc12` [Example 344], for which the EC50 in experiment [1] (Homo sapiens, T47D, 72 h) is 1 to 500 nM; in experiment [4] (Homo sapiens, SK-BR-3, 72 h), over 15000 nM. Also, the IC50 in experiment [2] (Homo sapiens, T47D, 6 h) was 1 to 500 nM; in experiment [3] (Homo sapiens, SK-BR-3, 6 h), over 15000 nM.
As to `C[C@@H](Nc1ccccc1C(=O)O)c1cc(F)cc2c(=O)n(C)c(-c3cnc(OC4CC4)s3)cc12` [Example 345], the concentration giving a half-maximal response (EC50) in experiment [1] (Homo sapiens, T47D, 72 h) was 1 to 500 nM; in experiment [4] (Homo sapiens, SK-BR-3, 72 h), over 15000 nM. Further, the half-maximal inhibitory concentration (IC50) was 1 to 500 nM in experiment [2] (Homo sapiens, T47D, 6 h) and over 15000 nM in experiment [3] (Homo sapiens, SK-BR-3, 6 h).
For `COC(C)(C)c1ncc(-c2cc3c([C@@H](C)Nc4cccc(F)c4C(=O)O)cc(C)cc3c(=O)n2C)cc1F` [Example 346], the EC50 in experiment [1] (Homo sapiens, T47D, 72 h) was 1 to 500 nM; in experiment [4] (Homo sapiens, SK-BR-3, 72 h), over 15000 nM. Besides, the concentration for half-maximal inhibition (IC50) was 1 to 500 nM in experiment [2] (Homo sapiens, T47D, 6 h) and over 15000 nM in experiment [3] (Homo sapiens, SK-BR-3, 6 h).
As for `CCOc1ncc(-c2cc3c([C@@H](C)Nc4cccc(F)c4C(=O)O)cc(C)cc3c(=O)n2C)s1` [Example 347], the EC50 in experiment [1] (Homo sapiens, T47D, 72 h) is 1 to 500 nM; in experiment [4] (Homo sapiens, SK-BR-3, 72 h), over 15000 nM. Moreover, the IC50 in experiment [2] (Homo sapiens, T47D, 6 h) was 1 to 500 nM; in experiment [3] (Homo sapiens, SK-BR-3, 6 h), over 15000 nM.
With `Cc1cc([C@@H](C)Nc2ccccc2C(=O)O)c2cc(-c3cnc(CC(F)(F)F)nc3)n(C)c(=O)c2c1` [Example 348], the concentration giving a half-maximal response (EC50) in experiment [1] (Homo sapiens, T47D, 72 h) was 1 to 500 nM; in experiment [4] (Homo sapiens, SK-BR-3, 72 h) it was over 15000 nM. The concentration for half-maximal inhibition (IC50) is 1 to 500 nM in experiment [2] (Homo sapiens, T47D, 6 h) and over 15000 nM in experiment [3] (Homo sapiens, SK-BR-3, 6 h).
Regarding `CCOc1ncc(-c2cc3c([C@@H](C)Nc4ccccc4C(=O)O)cc(F)cc3c(=O)n2C)s1` [Example 349], the concentration for a half-maximal effect (EC50) in experiment [1] (Homo sapiens, T47D, 72 h) was 1 to 500 nM; in experiment [4] (Homo sapiens, SK-BR-3, 72 h) it was over 15000 nM. For the same compound, the IC50 is 1 to 500 nM in experiment [2] (Homo sapiens, T47D, 6 h) and over 15000 nM in experiment [3] (Homo sapiens, SK-BR-3, 6 h).
With `CCON1CCN(c2cc3c([C@@H](C)Nc4cccc(F)c4C(=O)O)cc(C)cc3c(=O)n2C)CC1` [Example 350], the half-maximal effective concentration (EC50) in experiment [1] (Homo sapiens, T47D, 72 h) is 1 to 500 nM; in experiment [4] (Homo sapiens, SK-BR-3, 72 h), over 15000 nM. The 50% inhibitory concentration (IC50) in experiment [2] (Homo sapiens, T47D, 6 h) is 1 to 500 nM; in experiment [3] (Homo sapiens, SK-BR-3, 6 h), over 15000 nM.
In the case of `Cc1cc([C@@H](C)Nc2cccc(F)c2C(=O)O)c2cc(-c3ccc(OC4CC4)nc3)n(C)c(=O)c2c1` [Example 351], the EC50 in experiment [1] (Homo sapiens, T47D, 72 h) is 1 to 500 nM; in experiment [4] (Homo sapiens, SK-BR-3, 72 h) it was over 15000 nM. The IC50 was 1 to 500 nM in experiment [2] (Homo sapiens, T47D, 6 h) and over 15000 nM in experiment [3] (Homo sapiens, SK-BR-3, 6 h).
With `Cc1cc([C@@H](C)Nc2cccc(F)c2C(=O)O)c2cc(N3CCN(c4ccc(C)nc4)CC3)n(C)c(=O)c2c1` [Example 352], the EC50 in experiment [1] (Homo sapiens, T47D, 72 h) lay within 1 to 500 nM; in experiment [4] (Homo sapiens, SK-BR-3, 72 h) it was 2000 to 15000 nM. The IC50 in experiment [2] (Homo sapiens, T47D, 6 h) lay within 1 to 500 nM; in experiment [3] (Homo sapiens, SK-BR-3, 6 h) it was 2000 to 15000 nM.
For `Cc1ccc(N2CCN(c3cc4c([C@@H](C)Nc5ccccc5C(=O)O)cc(F)cc4c(=O)n3C)CC2)cn1` [Example 353], the EC50 in experiment [1] (Homo sapiens, T47D, 72 h) lay in the range of 1 to 500 nM; in experiment [4] (Homo sapiens, SK-BR-3, 72 h), 2000 to 15000 nM. Moreover, the half-inhibitory concentration (IC50) in experiment [2] (Homo sapiens, T47D, 6 h) is 1 to 500 nM; in experiment [3] (Homo sapiens, SK-BR-3, 6 h) it was 500 to 2000 nM.
For `Cc1cc(C(C)Nc2cccc(C#N)c2C(=O)O)c2cc(N3CCN(CC(F)(F)F)CC3)n(C)c(=O)c2c1` (stereo not shown) [Example 354], the 50% effective concentration (EC50) is 2000 to 15000 nM in experiment [1] (72 hours) and over 15000 nM in experiment [4] (72 hours). Also, the figures for the IC50 in experiment [2] and in experiment [3] (6 hours) were 2000 to 15000 nM and over 15000 nM, respectively.
Regarding `Cc1ccc(N2CCN(c3cc4c([C@@H](C)Nc5cccc(F)c5C(=O)O)cc(F)cc4c(=O)n3C)CC2)cn1` [Example 362], the EC50 in experiment [1] (Homo sapiens, T47D, 72 h) was in the range of 1 to 500 nM; in experiment [4] (Homo sapiens, SK-BR-3, 72 h) it was 2000 to 15000 nM. The half-inhibitory concentration (IC50) in experiment [2] (Homo sapiens, T47D, 6 h) was in the range of 1 to 500 nM; in experiment [3] (Homo sapiens, SK-BR-3, 6 h), 2000 to 15000 nM.
Regarding `CCOc1ncc(-c2cc3c([C@@H](C)Nc4cccc(F)c4C(=O)O)cc(F)cc3c(=O)n2C)s1` [Example 363], the EC50 is 1 to 500 nM in experiment [1] (Homo sapiens, T47D, 72 h) and over 15000 nM in experiment [4] (Homo sapiens, SK-BR-3, 72 h). Besides, the IC50 was 1 to 500 nM in experiment [2] (Homo sapiens, T47D, 6 h) and over 15000 nM in experiment [3] (Homo sapiens, SK-BR-3, 6 h).
